This assay concerns the target Urease (Glycine max, UniProt Q949H4). As to the kind of experiment: Urease Inhibition Assay. Conditions: pH 7; 37 °C. How it is done:
The inhibition studies of soybean urease were initiated with boric acid and boronic acids (butylboronic acid, 4-bromophenylboronic acid, and phenylboronic acid). Also, heavy metal ions (HgCl2, AgCl, and Cu(CH3COO)2) and sodium salts of mineral acids (NaF, NaCl, NaNO3, and Na2SO4) were investigated for their inhibitory effects. Stock solutions of inhibitors, except for 4-bromophenylboronicacid, were prepared in 0.05 M Tris-acetate buffer, pH 7.0, and were suitably diluted for experiments, whereas a stock solution of 4-bromophenylboronic acid was prepared in absolute ethanol and subsequently diluted in respective buffer. The activity assay was carried out at standard conditions as described earlier in the presence of varying concentrations of inhibitors. The yellow-orange colored solution was measured at 405 nm on a Unicam UV-2 spectrophotometer. The amount of NH3 liberated in the reaction mixture was estimated by calibrating Nessler's reagent with standard NH4Cl solution. One enzyme unit is defined as the amount of urease required to liberate 1 μmol of ammonia per minute under our test conditions (0.1 M urea, 0.05 M Trisacetatebuffer, pH 7.0, 37°C).

pKi: −log10 of the molar value.

Urease, sequence (Q949H4 whole entry): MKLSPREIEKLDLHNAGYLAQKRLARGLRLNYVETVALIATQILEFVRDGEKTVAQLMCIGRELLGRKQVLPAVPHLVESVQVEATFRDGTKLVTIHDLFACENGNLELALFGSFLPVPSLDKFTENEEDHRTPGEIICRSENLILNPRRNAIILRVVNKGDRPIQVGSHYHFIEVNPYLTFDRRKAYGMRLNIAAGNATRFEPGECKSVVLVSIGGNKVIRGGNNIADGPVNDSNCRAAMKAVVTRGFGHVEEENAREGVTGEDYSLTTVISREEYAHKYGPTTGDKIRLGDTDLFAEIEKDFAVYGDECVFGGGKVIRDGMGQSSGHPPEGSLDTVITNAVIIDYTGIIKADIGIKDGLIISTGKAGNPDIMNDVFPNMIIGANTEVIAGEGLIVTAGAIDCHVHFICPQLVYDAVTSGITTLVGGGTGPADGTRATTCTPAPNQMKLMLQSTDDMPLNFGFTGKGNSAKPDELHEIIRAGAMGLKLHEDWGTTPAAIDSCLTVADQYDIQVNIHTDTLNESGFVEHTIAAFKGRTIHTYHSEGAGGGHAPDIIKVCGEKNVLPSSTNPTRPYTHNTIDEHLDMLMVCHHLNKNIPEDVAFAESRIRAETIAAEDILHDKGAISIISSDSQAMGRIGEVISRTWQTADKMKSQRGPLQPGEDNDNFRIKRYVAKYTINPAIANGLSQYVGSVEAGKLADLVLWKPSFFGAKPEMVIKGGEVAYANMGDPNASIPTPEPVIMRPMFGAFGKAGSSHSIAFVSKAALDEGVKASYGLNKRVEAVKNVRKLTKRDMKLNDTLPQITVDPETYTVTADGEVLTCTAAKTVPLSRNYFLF

`OB(O)c1ccc(Br)cc1` [4-bromo phenyl boronic acid]: the negative-log Ki (pKi) was 3.66.

Regarding `CCCCB(O)O` [Borinic acid derivative], the pKi is 2.82.

`OB(O)O` [Boric acid]: the negative logarithm of the Ki (pKi) was 3.70.

In the case of `OB(O)c1ccccc1` [Phenylboronic acid, 22], the pKi is 2.70.

For orientation: pKi means the Ki on a negative log10 scale, so that one unit is a factor of ten. A high value points to a small Ki.
